# Target: T1, trypsin-activated recombinant human renin (Homo sapiens, UniProt P00797)
# T1 sequence (P00797 67-406): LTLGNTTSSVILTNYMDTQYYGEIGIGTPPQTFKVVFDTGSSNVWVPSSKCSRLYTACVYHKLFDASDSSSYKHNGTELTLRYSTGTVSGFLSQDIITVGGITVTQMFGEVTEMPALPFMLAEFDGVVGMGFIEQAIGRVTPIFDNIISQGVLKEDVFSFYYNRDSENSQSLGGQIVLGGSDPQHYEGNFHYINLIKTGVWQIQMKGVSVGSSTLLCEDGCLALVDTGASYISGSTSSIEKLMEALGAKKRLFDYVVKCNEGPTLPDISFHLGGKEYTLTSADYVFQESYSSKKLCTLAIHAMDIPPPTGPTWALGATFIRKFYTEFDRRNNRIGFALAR
# Experiment: Renin fluorescence assay (internally quenched peptide substrate)
# Format: biochemical
# Details: compounds I*
# Procedure, shortened: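 Cleavage of an angiotensinogen-derived DABCYL-quenched peptide by trypsin-activated recombinant human renin (0.2-2 nM final) in 50 mM BES, 150 mM NaCl, 0.25 mg/mL BSA, pH 7.0; compounds 10 μM to 1 nM final. Fluorescence (ex 340/em 495 nm) followed 60-360 min at rt; linear-slope rates give percent inhibition versus uninhibited control.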
row,IC50 [nM],Compound
1,< 20,"CC[C@@H](NC)[C@H](CC1CCCCC1)NC(=O)N1CCC[C@@H]([C@@H](OCCNC(=O)OC)c2cccc(Cl)c2)C1 [I*-130a, methyl 2-((R)-(3-chlorophenyl)((R)-1-((2S,3R)-1-cyclohexyl-3-(methylamino)pentan-2-ylcarbamoyl)piperidin-3-yl)methoxy)ethylcarbamate]"
2,> 50,"CNC[C@H](C[C@H]1CCC(=O)N(C)C1)NC(=O)N1CCC[C@@H]([C@@H](OCCNC(=O)OC)c2cccc(Cl)c2)C1 [I*-131a, methyl 2-((R)-(3-chlorophenyl)((R)-1-((S)-1-((R)-1-methyl-6-oxopiperidin-3-yl)-3-(methylamino)propan-2-ylcarbamoyl)piperidin-3-yl)methoxy)ethylcarbamate]"
3,> 50,"CNCC(C[C@H]1C[C@@H](C)O[C@@H](C)C1)NC(=O)N1CCC[C@@H]([C@@H](OCCNC(=O)OC)c2cccc(Cl)c2)C1 (stereo partly drawn) [I*-132a, methyl 2-((R)-(3-chlorophenyl)((R)-1-((S)-1-((2S,4r,6R)-2,6-dimethyl-tetrahydro-2H-pyran-4-yl)-3-(methylamino)propan-2-ylcarbamoyl)piperidin-3-yl)methoxy)ethylcarbamate]"
4,< 1,"CN[C@H](CNC(=O)N1CCC[C@@H]([C@@H](OCCNC(=O)OC)c2cc(Cl)ccc2C)C1)C[C@H]1CCCCOC1 [I*-133a, methyl 2-((R)-(5-chloro-2-methylphenyl)((R)-1-((S)-2-(methylamino)-3-((R)-oxepan-3-yl)propylcarbamoyl)piperidin-3-yl)methoxy)ethylcarbamate]"
5,> 50,"CNC[C@H](CCC1(OC)CCCC1)NC(=O)N1CCC[C@@H]([C@@H](OCCNC(=O)OC)c2cc(F)cc(F)c2)C1 [I*-134a, methyl 2-((R)-(3,5-difluorophenyl)((R)-1-((S)-4-(1-methoxycyclopentyl)-1-(methylamino)butan-2-ylcarbamoyl)piperidin-3-yl)methoxy)ethylcarbamate]"
6,< 10,"CNC[C@H](CC1CCCCCC1)NC(=O)N1CCC[C@@H]([C@@H](OCCNC(=O)OC)c2cccc(Cl)c2F)C1 [I*-135a, methyl 2-((R)-(3-chloro-2-fluorophenyl)((R)-1-((S)-1-cycloheptyl-3-(methylamino)propan-2-ylcarbamoyl)piperidin-3-yl)methoxy)ethylcarbamate]"
7,< 10,"CNC[C@H](CC1CCCCC1)NC(=O)N1CCC[C@@H]([C@@H](OCCNC(=O)OC)c2cccc(C(F)(F)F)c2)C1 [I*-136a, methyl 2-((R)-((R)-1-((S)-1-cyclohexyl-3-(methylamino)propan-2-ylcarbamoyl)piperidin-3-yl)(3-(trifluoromethyl)phenyl)methoxy)ethylcarbamate]"
8,< 10,"CNC[C@H](CC1CCCOCC1)NC(=O)N1CCC[C@@H]([C@@H](OCCNC(=O)OC)c2cccc(Cl)c2F)C1 (stereo partly drawn) [I*-137a, methyl 2-((R)-(3-chloro-2-fluorophenyl)((3R)-1-((S)-1-(methylamino)-3-(oxepan-4-yl)propan-2-ylcarbamoyl)piperidin-3-yl)methoxy)ethylcarbamate]"
9,< 10,"CNC[C@@H](NC(=O)N1CCC[C@@H]([C@@H](OCCNC(=O)OC)c2cccc(Cl)c2F)C1)[C@@H](O)C1CCCCC1 [I*-138a, methyl 2-((R)-(3-chloro-2-fluorophenyl)((R)-1-((1S,2R)-1-cyclohexyl-1-hydroxy-3-(methylamino)propan-2-ylcarbamoyl)piperidin-3-yl)methoxy)ethylcarbamate]"
10,< 10,"CNC[C@H](CC1CCCOC1)NC(=O)N1CCC[C@@H]([C@@](O)(CCCNC(=O)OC)c2cccc(Cl)c2F)C1 (stereo partly drawn) [I*-139a, methyl (S)-4-(3-chloro-2-fluorophenyl)-4-hydroxy-4-((3R)-1-((S)-1-(methylamino)-3-(tetrahydro-2H-pyran-3-yl)propan-2-ylcarbamoyl)piperidin-3-yl)butylcarbamate]"
11,< 1,"CNC[C@H](C[C@H]1CCCCOC1)NC(=O)N1CCC[C@@H]([C@@H](OCCNC(=O)OC)c2cccc(Cl)c2F)C1 [I*-140a, methyl 2-((R)-(3-chloro-2-fluorophenyl)((R)-1-((S)-1-(methylamino)-3-((R)-oxepan-3-yl)propan-2-ylcarbamoyl)piperidin-3-yl)methoxy)ethylcarbamate]"
12,< 1,"CNC[C@H](C[C@H]1CCCCOC1)NC(=O)N1CCC[C@@H]([C@@H](OCCNC(=O)OC)c2cc(F)cc(Cl)c2)C1 [I*-141a, methyl 2-((R)-(3-chloro-5-fluorophenyl)((R)-1-((S)-1-(methylamino)-3-((R)-oxepan-3-yl)propan-2-ylcarbamoyl)piperidin-3-yl)methoxy)ethylcarbamate]"
13,< 10,"CNC[C@H](C[C@H]1CCCOC1)NC(=O)N1CCC[C@@H]([C@@](O)(CCCNC(=O)OC)c2cccc(Cl)c2F)C1 [I*-142a, methyl (S)-4-(3-chloro-2-fluorophenyl)-4-hydroxy-4-((R)-1-((S)-1-(methylamino)-3-((R)-tetrahydro-2H-pyran-3-yl)propan-2-ylcarbamoyl)piperidin-3-yl)butylcarbamate]"
14,< 1,"CN[C@H](CNC(=O)N1CCC[C@@H]([C@@H](OCCNC(=O)OC)c2cc(F)cc(Cl)c2)C1)C[C@H]1CCCCOC1 [I*-143a, methyl 2-((R)-(3-chloro-5-fluorophenyl)((R)-1-((S)-2-(methylamino)-3-((R)-oxepan-3-yl)propylcarbamoyl)piperidin-3-yl)methoxy)ethylcarbamate]"
15,> 50,"CNC[C@H](CC1CCOCC1)NC(=O)N1CCC[C@@H]([C@@H](OCCNC(=O)OC)c2cccc(C(F)(F)F)c2)C1 [I*-144a, methyl 2-((R)-((R)-1-((S)-1-(methylamino)-3-(tetrahydro-2H-pyran-4-yl)propan-2-ylcarbamoyl)piperidin-3-yl)(3-(trifluoromethyl)phenyl)methoxy)ethylcarbamate]"
16,< 10,"CNC[C@H](CC12CC3CC(CC(C3)C1)C2)NC(=O)N1CCC[C@@H]([C@@H](OCCNC(=O)OC)c2cccc(F)c2)C1 [I*-145a, methyl 2-((R)-((R)-1-((S)-1-(1-adamantyl)-3-(methylamino)propan-2-ylcarbamoyl)piperidin-3-yl)(3-fluorophenyl)methoxy)ethylcarbamate]"
17,< 1,"CNC[C@H](CC1CCC(F)(F)CC1)NC(=O)N1CCC[C@@H]([C@@H](OCCNC(=O)OC)c2cccc(Cl)c2)C1 [I*-146a, methyl 2-((R)-(3-chlorophenyl)((R)-1-((S)-1-(4,4-difluorocyclohexyl)-3-(methylamino)propan-2-ylcarbamoyl)piperidin-3-yl)methoxy)ethylcarbamate]"
18,< 1,"CNC[C@H](CC1CCC(F)(F)CC1)NC(=O)N1CCC[C@@H]([C@@H](OCCNC(=O)OC)c2cc(F)cc(F)c2)C1 [I*-147a, methyl 2-((R)-((R)-1-((S)-1-(4,4-difluorocyclohexyl)-3-(methylamino)propan-2-ylcarbamoyl)piperidin-3-yl)(3,5-difluorophenyl)methoxy)ethylcarbamate]"
19,> 50,"CNC[C@H](CC1CCOCC1)NC(=O)N1CCC[C@@H]([C@@H](OCCNC(=O)OC)c2ccc(F)c(Cl)c2F)C1 [I*-148a, methyl 2-((R)-(3-chloro-2,4-difluorophenyl)((R)-1-((S)-1-(methylamino)-3-(tetrahydro-2H-pyran-4-yl)propan-2-ylcarbamoyl)piperidin-3-yl)methoxy)ethylcarbamate]"
20,< 10,"CNC[C@H](CC12CC3CC(CC1C3)C2)NC(=O)N1CCC[C@@H]([C@@H](OCCNC(=O)OC)c2cc(F)ccc2F)C1 [I*-149a, methyl 2-((R)-((R)-1-((S)-1-(3-noradamantyl)-3-(methylamino)propan-2-ylcarbamoyl)piperidin-3-yl)(2,5-difluorophenyl)methoxy)ethylcarbamate]"
21,< 1,"CNC[C@H](CC12CC3CC(CC1C3)C2)NC(=O)N1CCC[C@@H]([C@@](C)(OCCNC(=O)OC)c2cccc(Cl)c2)C1 [I*-151a, methyl 2-((R)-1-(3-chlorophenyl)-1-((3R)-1-((S)-1-(3-noradamantyl)-3-(methylamino)propan-2-ylcarbamoyl)piperidin-3-yl)ethoxy)ethylcarbamate]"
22,< 10,"CNC[C@H](CC12CC3CC(CC(C3)C1)C2)NC(=O)N1CCC[C@@H]([C@@H](OCCNC(=O)OC)c2cc(F)ccc2F)C1 [I*-152a, methyl 2-((R)-((R)-1-((S)-1-(1-adamantyl)-3-(methylamino)propan-2-ylcarbamoyl)piperidin-3-yl)(2,5-difluorophenyl)methoxy)ethylcarbamate]"
23,< 1,"CNC[C@H](CC1CCC(F)(F)CC1)NC(=O)N1CCC[C@@H]([C@@H](OCCNC(=O)OC)c2cc(F)cc(Cl)c2)C1 [I*-153a, methyl 2-((R)-(3-chloro-5-fluorophenyl)((R)-1-((S)-1-(4,4-difluorocyclohexyl)-3-(methylamino)propan-2-ylcarbamoyl)piperidin-3-yl)methoxy)ethylcarbamate]"

row,Compound,IC50 [nM]
1,"CCC[C@](OCCNC(=O)OC)(c1cccc(Cl)c1)[C@@H]1CCCN(C(=O)N[C@H](CNC)CC2CCCCC2)C1 [I*-150a, methyl 2-((R)-1-(3-chlorophenyl)-1-((R)-1-((S)-1-cyclohexyl-3-(methylamino)propan-2-ylcarbamoyl)piperidin-3-yl)butoxy)ethylcarbamate]",< 50

# Source: US8487108B2, “Piperidinyl carbamate intermediates for the synthesis of aspartic protease inhibitors” (Vitae Pharmaceuticals, Inc., priority 2005, dated 2013)
